From ChEMBL document CHEMBL1201862, “PubChem BioAssay data set” (2004)
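Each compound was tested at five concentrations against cells in 96-well plates for 48 hours. The concentration for 50% growth inhibition is given as GI50.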 The source made the active and inactive calls. Rule as the data show it: active = GI50 up to about 1.1 µM and inactive = higher.

How the values were obtained:
Test in all cases: DTP human tumour cell line panel, 48 h
[1] = test system: A498
[2] = test system: Hs-578T
[3] = test system: CCRF-CEM
[4] = test system: SF-539
[5] = test system: UACC-257
[6] = test system: HCC 2998
[7] = test system: TK-10
[8] = test system: DU-145
[9] = test system: MDA-N
[10] = test system: SF-295
[11] = test system: HCT-15
[12] = test system: SK-MEL-28
[13] = test system: NCI/ADR-RES
[14] = test system: ACHN
[15] = test system: EKVX
[16] = test system: MDA-MB-231
[17] = test system: NCI-H522
[18] = test system: NCI-H226
[19] = test system: HCT-116
[20] = test system: RXF 393

Measured: GI50

Cc1[nH]n(-c2ccccc2)c(=O)c1C(N(CCc1ccccc1)C1=NCC(C)S1)(C(F)(F)F)C(F)(F)F (centres undefined)
13.3 µM: [11]
inactive: [1] 11.9 µM | [2] 20.5 µM | [3] 19.3 µM | [4] 16.7 µM | [5] 16 µM | [6] 13.4 µM | [7] 16.3 µM | [8] 27.2 µM | [9] 8.63 µM | [10] 9.02 µM | [12] 16.4 µM | [13] 18.9 µM | [14] 16.2 µM | [15] 11.3 µM | [16] 18.8 µM | [17] 4.35 µM | [18] 6.28 µM | [19] 10.1 µM

O=C1NC(NCc2ccc(F)cc2)=N/C1=C\c1ccccc1Cl
19.1 µM: [11]
inactive: [1] 16.8 µM | [2] 30.5 µM | [4] 32.1 µM | [5] 24.9 µM | [6] 26.3 µM | [7] 21.5 µM | [8] 19.9 µM | [9] 16.8 µM | [10] 17.1 µM | [12] 23.6 µM | [13] 20.1 µM | [14] 20.7 µM | [15] 19.8 µM | [16] 17.8 µM | [17] 13.8 µM | [18] 18.1 µM | [19] 14.5 µM | [20] 19.6 µM

N#Cc1nsnc1-c1nc(-c2nsnc2C#N)nc(-c2nsnc2C#N)n1
inactive: [1] > 100 µM | [2] 37.7 µM | [4] > 100 µM | [5] > 100 µM | [6] > 100 µM | [7] 71.4 µM | [8] > 100 µM | [9] > 100 µM | [10] > 100 µM | [12] > 100 µM | [13] > 100 µM | [14] > 100 µM | [15] > 100 µM | [16] > 100 µM | [17] > 100 µM | [18] > 100 µM | [19] > 100 µM | [20] 63.8 µM
> 100 µM: [11]

C/C(=N\O)c1cccc(Nc2c3ccccc3nc3occc23)c1
3.38 µM: [11]
inactive: [1] 16.7 µM | [2] 8.61 µM | [3] 3.4 µM | [4] 4.25 µM | [5] 7.03 µM | [6] 4.89 µM | [7] 10.1 µM | [8] 14.8 µM | [9] 3.05 µM | [10] 4.24 µM | [12] 4.02 µM | [13] 2.3 µM | [14] 8.07 µM | [15] 5.86 µM | [16] 4.51 µM | [17] 1.74 µM | [18] 14.1 µM | [19] 3.52 µM

O=C(O)C(NCc1ccccc1)C(NCc1ccccc1)C(=O)O (centres undefined)
> 100 µM: [11]
inactive: [1] > 100 µM | [2] > 100 µM | [3] > 100 µM | [4] > 100 µM | [5] > 100 µM | [6] > 100 µM | [7] > 100 µM | [8] > 100 µM | [9] > 100 µM | [10] > 100 µM | [12] > 100 µM | [13] > 100 µM | [14] > 100 µM | [15] > 100 µM | [16] > 100 µM | [17] > 100 µM | [18] > 100 µM | [19] > 100 µM

Cn1c(=O)n(-c2c3ccccc3c(Cl)c3ccccc23)n(C(C)(C)C)c1=O
inactive: [1] > 100 µM | [2] 41.3 µM | [3] > 100 µM | [4] 43.6 µM | [5] > 100 µM | [6] > 100 µM | [7] > 100 µM | [8] > 100 µM | [9] > 100 µM | [10] > 100 µM | [12] > 100 µM | [13] > 100 µM | [14] > 100 µM | [15] > 100 µM | [16] 97.1 µM | [17] > 100 µM | [18] 44.6 µM | [19] > 100 µM
> 100 µM: [11]
